Test: Antioxidant activity assessed as DPPH radical scavenging activity at 80 uM/ml incubated for 20 mins by spectrophotometric method relative to control
Format: functional

## CC(=O)N(C1=CC(=O)CCC1)c1ccc(Cl)cc1
  Activity: 83.9%
